We go through four compounds from patent US12497359B2, “Acrylamide derivatives” (NRG Therapeutics Ltd, priority 2020, dated 2025).

Values after ≈ are worked out from the molar mass of the structure shown.

One data set deals with mPTP. Nature of the data set: mPTP activity assay in isolated rat liver mitochondria (Ca2+ retention, Fluo5N, FLIPR). It counts as biochemical. The note with it: for mPTP Rat liver pIC50*: isolated rat liver mitochondria, average value from multiple experiments (n ≥ 2). The method in brief:
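Freshly isolated female Sprague Dawley rat liver mitochondria in pH 7.4 buffer with 10 mM succinate, 1 μM rotenone and 2 μM Fluo5N, preincubated 10 min at RT with compound (30 μM to 1 nM). CaCl2 bolus (75 μM) added; IC50 from 10 min fluorescence, normalised to DMSO and 5 μM cyclosporin A.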

The next data set in a line: PBS solubility. It counts as physicochemical. Conditions: aqueous buffer, kinetic from dmso stock; PBS pH 7.4, 2 hr at 25° C. The method in brief:
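Compound from 10 mM DMSO stock was added in duplicate to FaSSIF or PBS (pH 7.4) and shaken at 1100 rpm for 2 hr at 25 °C. After filtration, the filtrate was quantified by LC-MS/MS with internal standard against a standard of known concentration.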

Data set [1] can be described thus: Hepatocyte clearance assay, rat. Conditions: cryopreserved primary rat hepatocytes, average value from two experiments, read-out: Rat heps intrinsic clearance (CLint). The format is in vitro ADME. Put shortly:
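Cryopreserved rat or human hepatocytes at 0.5×10^6 viable cells/mL in L-15 medium, compound incubated at 37° C. with sampling to 120 min, in duplicate; parent remaining by LC/MS/MS. Half-life from ln(% remaining) vs time slope; CLint (μL/min/1×10^6 cells) = kV/N, V 0.2 mL, N 0.1×10^6 cells.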

What is called solubility is how much of the substance goes into solution per volume. Read a low solubility as little dissolved substance. On to `O=C(/C=C/c1ccc2cn[nH]c2c1)N[C@@H]1CCc2ccccc21` [Example 3, (R,E)-N-(2,3-dihydro-1H-inden-1-yl)-3-(1H-indazol-6-yl)acrylamide], for which the “mPTP Rat liver pIC50*” value in the data set with mPTP was 7.2. Further, the solubility at 2 h in the data set “PBS solubility” stood at 2.2 µM (≈ 0.667 µg/mL). Also, the hepatocyte CLint at 1 µM in data set [1] worked out at 28 µL/min/1e6 cells.

In the case of `COCc1ccccc1NC(=O)/C=C/c1ccc2cn[nH]c2c1` [Example 29, (E)-3-(1H-indazol-6-yl)-N-(2-(methoxymethyl)phenyl)acrylamide], in the data set on mPTP, the “mPTP Rat liver pIC50*” value is on record as 7.1. The same compound showed a solubility at 2 h in “PBS solubility” of 29 µM (≈ 8.91 µg/mL). For the same compound, the hepatocyte CLint at 1 µM in data set [1] was found to be 10 µL/min/1e6 cells.

As to `C[C@H]1Cc2ccccc2[C@@H]1NC(=O)/C=C/c1ccc2cn[nH]c2c1` (single isomer, unassigned) [Example 14c], the “activity in the rat liver mitochondria assay” value in the data set with mPTP (comparison among Example compounds, in words) is recorded as “highest activity”. Moreover, the “mPTP Rat liver pIC50*” value with mPTP is listed as 7.9. Also, the concentration in solution in the data set “PBS solubility” (solubility at 2 h) came to 0.6 µM (≈ 0.19 µg/mL). For the same compound, the hepatocyte CLint at 1 µM in data set [1] amounted to 48 µL/min/1e6 cells.

Consider `C[C@@H]1COc2ccccc2[C@@H]1NC(=O)/C=C/c1ccc2cn[nH]c2c1` (single isomer, unassigned) [Example 15d, (E)-3-(1H-indazol-6-yl)-N-(3-methylchroman-4-yl)acrylamide], for which the “mPTP Rat liver pIC50*” value in the data set on mPTP came out at 7.6. The compound also gave a solubility at 2 h in “PBS solubility” of 2 µM (≈ 0.667 µg/mL).
